Measurements: patent US9878994B2, “2-H-indazole derivatives as cyclin-dependent kinase (CDK) inhibitors and therapeutic uses thereof” (Beta Pharma, Inc., priority 2014, dated 2018)
Where two headings read alike, the source gives them in different places.

Tests used:
[1] = system: MCF7 human tumor cells; assay: MCF7 cell assay (Cell Titer-Glo, inhibition of cell growth); type: cell-based; settings: 72 hours of culture
Description: The MCF7 human tumor cells were seeded in a clear polystyrene 96-well microculture plate (Corning® Costar® 96-well flat bottom plate, Cat. #3997) in a total volume of 90 μL/well. After 24 hours of incubation in a humidified incubator at 37° C. with 5% CO2 and 95% air, 10 μL of 10×, serially diluted 1 in growth medium was added to each well in duplicate (10 point dose response). After 72 hours of culture in a humidified incubator at 37° C., in an atmosphere of 5% CO2 and 95% air, the plated cells and Cell Titer-Glo® (Promega G7571) reagents were brought to room temperature to equilibrate for 30 minutes. 100 μL of Cell Titer-Glo® reagent was added to each well. The plate was shaken for two minutes and then left to equilibrate for ten minutes. The medium/Cell Titer Glo® reagent was transferred to a white polystyrene 96-well microculture plate (Corning® Costar® 96-well flat bottom plate, Cat. #3917) before reading luminescence on the Tecan GENios microplate reader. Percent inhibition of cell growth was calculated relative to untreated control wells. All tests were performed in duplicate at each concentration level. The IC50 value for the test agents was estimated using Prism 6.05 by curve-fitting the data using the following four parameter-logistic equation: […]

[2] = molecular target: CDK4 (Homo sapiens, UniProt P11802); assay: CDK4 biochemical assay (33P-ATP filter-binding kinase assay)
Description: (§1) Cyclin Dl was added to freshly prepared reaction buffer [20 mM Hepes (pH 7.5), 10 mM MgCl2, 1 mM EGTA, 0.02% Brij 35, 0.02 mg/mL BSA, 0.1 mM Na3VO4, 2 mM DTT, 1% DMSO]. CDK4 or CDK6 was delivered to the substrate solution and gently mixed. […] The compounds, diluted in DMSO, were added into the kinase reaction mixture by Acoustic technology (Echo550; nanoliter range) and incubated for 20 minutes at room temperature. 33P-ATP (1 μM) was added to the reaction mixture to initiate the reaction. The kinase reaction was incubated for 2 hours at room temperature. The reactions were spotted onto P81 ion exchange paper and the kinase activity detected by filter-binding method. Curves were fitted to a nonlinear regression curve using a four parameter logistic equation (GraphPad Prism).

[3] = molecular target: CDK6 (Homo sapiens, UniProt Q00534); assay: CDK6 biochemical assay (33P-ATP filter-binding kinase assay)
Description: as §1

CDK4, sequence (P11802 whole entry): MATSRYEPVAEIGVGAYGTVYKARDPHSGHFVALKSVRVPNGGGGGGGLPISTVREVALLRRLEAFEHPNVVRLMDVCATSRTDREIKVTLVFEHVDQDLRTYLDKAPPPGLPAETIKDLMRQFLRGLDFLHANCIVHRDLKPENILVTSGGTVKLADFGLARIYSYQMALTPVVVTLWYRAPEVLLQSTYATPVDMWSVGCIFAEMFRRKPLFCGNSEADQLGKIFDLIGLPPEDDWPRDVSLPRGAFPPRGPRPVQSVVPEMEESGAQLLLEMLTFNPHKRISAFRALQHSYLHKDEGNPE
CDK4, sequence (P24385 whole entry partner): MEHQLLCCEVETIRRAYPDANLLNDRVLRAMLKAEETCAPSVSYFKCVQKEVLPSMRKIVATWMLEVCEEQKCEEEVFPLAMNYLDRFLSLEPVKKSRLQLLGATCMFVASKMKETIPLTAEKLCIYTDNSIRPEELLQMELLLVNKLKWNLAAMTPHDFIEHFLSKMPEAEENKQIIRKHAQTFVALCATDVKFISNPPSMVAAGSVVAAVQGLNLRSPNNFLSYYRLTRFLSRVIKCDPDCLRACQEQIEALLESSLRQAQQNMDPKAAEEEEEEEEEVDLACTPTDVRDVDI
CDK6, sequence (Q00534 whole entry): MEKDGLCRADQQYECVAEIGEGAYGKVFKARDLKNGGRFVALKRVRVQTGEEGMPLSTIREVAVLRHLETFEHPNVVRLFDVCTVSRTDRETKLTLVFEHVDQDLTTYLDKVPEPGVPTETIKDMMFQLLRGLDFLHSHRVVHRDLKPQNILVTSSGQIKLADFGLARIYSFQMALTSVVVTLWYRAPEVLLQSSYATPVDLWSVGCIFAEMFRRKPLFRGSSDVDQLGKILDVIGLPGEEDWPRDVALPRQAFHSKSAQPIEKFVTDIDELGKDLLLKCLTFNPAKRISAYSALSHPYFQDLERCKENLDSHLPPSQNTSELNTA
CDK6, sequence (P24385 whole entry partner): as the sequence (P24385 whole entry partner) above

SMILES | IC50 [1] [nM] | IC50 ([2]; Cyclin D1, 1 μM 33P-ATP, 2 hours at room temperature, read-out: IC50 in CDK4 assay) [nM] | IC50 ([3]; Cyclin D1, 1 μM 33P-ATP, 2 hours at room temperature, read-out: IC50 in CDK6 assay) [nM] | IC50 ([2]; assay conditions described herein, read-out: IC50 CDK4 biochemical assay) [nM] | IC50 ([3]; assay conditions described herein, read-out: IC50 CDK6 biochemical assay) [nM]
CN(C)C(=O)c1cc2cnc(Nc3ccc(N4CCNCC4)cn3)nc2n1C1CCCC1 [Compound 32] | 10000 | – | – | – | –
CCN1CCN(Cc2ccc(Nc3ncc(F)c(-c4ccc5nn(C)c(C(C)C)c5c4)n3)nc2)CC1 [Compound 1, N-(5-((4-ethylpiperazin-1-yl)methyl)pyridin-2-yl)-5-fluoro-4-(3-isopropyl-2-methyl-2H-indazol-5-yl)pyrimidin-2-amine] | < 2000 | < 1 | < 1 | – | –
CC(=O)c1c(C)c2nc(Nc3ccc(N4CCNCC4)cn3)ncc2n(C2CCCC2)c1=O [Compound 34] | 10000 | – | – | < 1 | < 2
CCN1CCN(Cc2ccc(Nc3ncc(F)c(-c4cc(F)c5nc(C)n(C(C)C)c5c4)n3)nc2)CC1 [Compound 33] | < 2000 | – | – | – | –
